# Measurements published in patent US10683293B2, “Optionally fused heterocyclyl-substituted derivatives of pyrimidine useful for the treatment of inflammatory, metabolic, oncologic and autoimmune diseases” (NUEVOLUTION A/S, priority 2014, dated 2020).
# pIC50: −log10 of the molar value.
# Target: T1, human RORγt (Ligand Binding Domain) (Homo sapiens, UniProt P51449)
# T1 construct: purchased Crelux (Planegg, Germany) batch no PC5032-1
# T1 sequence (P51449 269-508 limits assumed): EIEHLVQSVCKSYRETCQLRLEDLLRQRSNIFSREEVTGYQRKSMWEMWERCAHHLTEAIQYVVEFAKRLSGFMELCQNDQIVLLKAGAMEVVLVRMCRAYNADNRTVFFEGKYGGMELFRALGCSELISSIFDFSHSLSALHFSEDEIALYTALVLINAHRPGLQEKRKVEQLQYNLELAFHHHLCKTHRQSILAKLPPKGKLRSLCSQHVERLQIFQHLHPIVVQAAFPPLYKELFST
# Assay: Fluorescence Polarization (FP) Assay
# Settings: 100 nM human RORγt LBD, 25 nM TAMRA probe, values are activity range bounds
# Procedure: The activity of the compounds was evaluated using a Fluorescence Polarization (FP) Assay and, RORγ Reporter assay (also referred to as Gal4 assay). The FP assay is an in vitro assay monitoring binding within the ligand binding pocket. The RORγ and the Th17 assays (another suitable assay) are both cell-based assays monitoring functional activity of the compound assayed.
# Fluorescence Polarization (FP) Assay
# The total volume was 25 μl, in a black Perkin Elmer OptiPlate. As negative control, 1 μl DMSO was used. […] The probe is a fluorescently labeled (TAMRA) RORγt ligand identified by Nuevolution with a total molecular weight of 910 g/mole as shown in Graph A in FIG. 1.
row,SMILES,pIC50
1,"Fc1c(NCc2ccncc2)ncnc1N(Cc1ccc(C(F)(F)F)cc1)C1CC1 [Example A41, N4-cyclopropyl-5-fluoro-N6-(4-pyridylmethyl)-N4-[[4-(trifluoromethyl)phenyl]methyl] pyrimidine-4,6-diamine]",> 6.30
2,"COC1CCCCC1CNc1ncnc(N(Cc2ccc(C(F)(F)F)cc2)C2CC2)c1F (centres unmarked) [Example A43, N4-cyclopropyl-5-fluoro-N6-[(2-methoxycyclohexyl)methyl]-N4-[[4-(trifluoromethyl)phenyl]methyl] pyrimidine-4,6-diamine]",> 6.00
3,"OC1(CNc2ncnc(N(Cc3ccc(C(F)(F)F)cc3)C3CC3)c2F)CCC(F)(F)CC1 [Example A44, 1-[[[6-[cyclopropyl-[[4-(trifluoromethyl)phenyl]methyl]amino]-5-fluoro-pyrimidin-4-yl]amino]methyl]-4,4-difluoro-cyclohexanol]",> 6.30
4,"CS(=O)(=O)CC1(CNc2ncnc(N(Cc3ccc(C(F)(F)F)cc3)C3COC3)c2F)CCOCC1 [Example A45, 5-fluoro-N6-[[4-(methylsulfonylmethyl)tetrahydro-pyran-4-yl]methyl]-N4-(oxetan-3-yl)-N4-[[4-(trifluoromethyl)phenyl]methyl] pyrimidine-4,6-diamine]",> 5.70
5,"CC(C)(C)OC(=O)NCC(c1ccc(C(F)(F)F)cc1)N(c1ncnc(NCc2ccc(CC(N)=O)cc2)c1F)C1CC1 (centres unmarked) [Example A47, tert-butyl N-[2-[[6-[[4-(2-amino-2-oxo-ethyl)phenyl]methylamino]-5-fluoro-pyrimidin-4-yl]-cyclopropyl-amino]-2-[4-(trifluoromethyl)phenyl]ethyl] carbamate]",> 5.00
6,"CS(=O)(=O)N1CCC(O)(CNc2ncnc(N(Cc3ccc(C(F)(F)F)cc3)C3CC3)c2F)CC1 [Example A69, 4-[[[6-[cyclopropyl-[[4-(trifluoromethyl)phenyl]methyl]amino]-5-fluoro-pyrimidin-4-yl]amino]methyl]-1-methylsulfonyl-piperidin-4-ol]",> 6.30
7,"O=C(O)CC1(CNc2ncnc(N(Cc3ccc(C(F)(F)F)cc3)C3CC3)c2F)CCS(=O)(=O)CC1 [Example A72, 2-[4-[[[6-[cyclopropyl-[[4-(trifluoromethyl)phenyl]methyl]amino]-5-fluoro-pyrimidin-4-yl]amino]methyl]-1,1-dioxo-thian-4-yl]acetic acid]",> 5.00
8,"N#CNC(=O)c1ccc(CNc2ncnc(N(Cc3ccc(C(F)(F)F)cc3)C3CC3)c2F)cc1 [Example A84, N-cyano-4-[[[6-[cyclopropyl-[[4-(trifluoromethyl)phenyl]methyl]amino]-5-fluoro-pyrimidin-4-yl]amino]methyl]benzamide]",> 6.30
9,"O=C(O)CC1CC(CNc2ncnc(N(Cc3ccc(C(F)(F)F)cc3)C3CC3)c2F)C1 (centres unmarked) [Example A92, 2-[3-[[[6-[cyclopropyl-[[4-(trifluoromethyl)phenyl]methyl]amino]-5-fluoro-pyrimidin-4-yl]amino]methyl]cyclobutyl]acetic acid]",> 5.00
10,"N#Cc1ccc(CN(c2ncnc(NCc3ccc(CC(N)=O)cc3)c2F)C2CC2)cn1 [Example A93, 2-[4-[[[6-[(6-cyano-3-pyridyl)methyl-cyclopropyl-amino]-5-fluoro-pyrimidin-4-yl]amino]methyl]phenyl]acetamide]",> 5.70
11,"NC(=O)C1CC(CNc2ncnc(N(Cc3ccc(C(F)(F)F)cc3)C3CC3)c2F)C1 (centres unmarked) [Example A96, 3-[[[6-[cyclopropyl-[[4-(trifluoromethyl)phenyl]methyl]amino]-5-fluoro-pyrimidin-4-yl]amino]methyl]cyclobutane-carboxamide]",> 5.00
12,"NC(=O)Cc1ccc(CNc2ncnc(N(Cc3ccc(C(F)(F)F)nn3)C3CC3)c2F)cc1 [Example A99, 2-[4-[[[6-[cyclopropyl-[[6-(trifluoromethyl)pyridazin-3-yl]methyl]amino]-5-fluoro-pyrimidin-4-yl]amino]methyl]phenyl]acetamide]",> 5.00
13,"CS(=O)(=O)N1CCC(C(=O)Nc2ncnc(N(Cc3ccc(C(F)(F)F)cc3)C3CC3)c2F)CC1 [Example A100, N-[6-[cyclopropyl-[[4-(trifluoromethyl)phenyl]methyl]amino]-5-fluoro-pyrimidin-4-yl]-1-methylsulfonyl-piperidine-4-carboxamide]",> 5.00
14,"O=S(=O)(Nc1ccc(CNc2ncnc(N(Cc3ccc(C(F)(F)F)nc3)C3CC3)c2F)cc1)C(F)F [Example A105, N-[4-[[[6-[cyclopropyl-[[6-(trifluoromethyl)-3-pyridyl]methyl]amino]-5-fluoro-pyrimidin-4-yl]amino]methyl]phenyl]-1,1-difluoro-methanesulfonamide]",> 5.00
15,"O=S(=O)(Nc1ccc(CNc2ncnc(N(Cc3ccc(C(F)(F)F)cn3)C3CC3)c2F)cc1)C(F)F [Example A106, N-[4-[[[6-[cyclopropyl-[[5-(trifluoromethyl)-2-pyridyl]methyl]amino]-5-fluoro-pyrimidin-4-yl]amino]methyl]phenyl]-1,1-difluoro-methanesulfonamide]",> 5.00

# Second part, the molecule after the results:
row,pIC50,SMILES
1,> 6.00,"CS(=O)(=O)Nc1ncc(CNc2ncnc(N(Cc3ccc(C(F)(F)F)cc3)C3CC3)c2F)cn1 [Example A111, N-[5-[[[6-[cyclopropyl-[[4-(trifluoromethyl)phenyl]methyl]amino]-5-fluoro-pyrimidin-4-yl]amino]methyl]pyrimidin-2-yl]methanesulfonamide]"
2,> 5.70,"NC(=O)Cc1ccc(CNc2ncnc(N(Cc3ccc(C(F)(F)F)nc3)C3CC3)c2F)cn1 [Example A112, 2-[5-[[[6-[cyclopropyl-[[6-(trifluoromethyl)-3-pyridyl]methyl]amino]-5-fluoro-pyrimidin-4-yl]amino]methyl]-2-pyridyl]acetamide]"
3,> 5.00,"NC(=O)Cc1ccc(CNc2ncnc(N(Cc3ccc(C(F)(F)F)cn3)C3CC3)c2F)cn1 [Example A113, 2-[5-[[[6-[cyclopropyl-[[5-(trifluoromethyl)-2-pyridyl]methyl]amino]-5-fluoro-pyrimidin-4-yl]amino]methyl]-2-pyridyl]acetamide]"
4,> 6.30,"CS(=O)(=O)c1ccc(CNc2ncnc(N(Cc3ccc(C(F)(F)F)nc3)C3CC3)c2F)nc1 [Example A114, N4-cyclopropyl-5-fluoro-N6-[(5-methylsulfonyl-2-pyridyl)methyl]-N4-[[6-(trifluoromethyl)-3-pyridyl]methyl]pyrimidine-4,6-diamine]"
5,> 6.30,"CS(=O)(=O)c1ccc(CNc2ncnc(N(Cc3ccc(C(F)(F)F)cn3)C3CC3)c2F)nc1 [Example A115, N4-cyclopropyl-5-fluoro-N6-[(5-methylsulfonyl-2-pyridyl)methyl]-N4-[[5-(trifluoromethyl)-2-pyridyl]methyl]pyrimidine-4,6-diamine]"
6,> 6.30,"CN(Cc1cccc2ccccc12)c1ncnc(NCc2ccc(CC(N)=O)cc2)c1F [Example A118, 2-[4-[[[5-fluoro-6-[methyl(1-naphthylmethyl)amino]pyrimidin-4-yl]amino]methyl]phenyl]acetamide]"
7,> 5.70,"Cn1cc(CN(c2ncnc(NCc3ccc(CC(N)=O)cc3)c2F)C2CC2)cn1 [Example A119, 2-[4-[[[6-[cyclopropyl-[(1-methylpyrazol-4-yl)methyl]amino]-5-fluoro-pyrimidin-4-yl]amino]methyl]phenyl]acetamide]"
8,> 6.30,"CN(Cc1ccc2ccccc2c1)c1ncnc(NCc2ccc(CC(N)=O)cc2)c1F [Example A121, 2-[4-[[[5-fluoro-6-[methyl(2-naphthylmethyl)amino]pyrimidin-4-yl]amino]methyl]phenyl]acetamide]"
9,> 6.30,"CN(Cc1ccccc1OC(F)(F)F)c1ncnc(NCc2ccc(CC(N)=O)cc2)c1F [Example A122, 2-[4-[[[5-fluoro-6-[methyl-[[2-(trifluoromethoxy)phenyl]methyl]amino]pyrimidin-4-yl]amino]methyl]phenyl]acetamide]"
10,> 5.00,"CCN(Cc1cn(CC)nc1C)c1ncnc(NCc2ccc(CC(N)=O)cc2)c1F [Example A123, 2-[4-[[[6-[ethyl-[(1-ethyl-3-methyl-pyrazol-4-yl)methyl]amino]-5-fluoro-pyrimidin-4-yl]amino]methyl]phenyl]acetamide]"
11,> 6.30,"CCN(Cc1cccc2c1OCO2)c1ncnc(NCc2ccc(CC(N)=O)cc2)c1F [Example A126, 2-[4-[[[6-[1,3-benzodioxol-4-ylmethyl(ethyl)amino]-5-fluoro-pyrimidin-4-yl]amino]methyl]phenyl]acetamide]"
12,> 6.30,"CN(Cc1cccc(OC(F)F)c1)c1ncnc(NCc2ccc(CC(N)=O)cc2)c1F [Example A127, 2-[4-[[[6-[[3-(difluoromethoxy)phenyl]methyl-methyl-amino]-5-fluoro-pyrimidin-4-yl]amino]methyl]phenyl]acetamide]"
13,> 6.30,"CN(Cc1cccc(OC(F)(F)F)c1)c1ncnc(NCc2ccc(CC(N)=O)cc2)c1F [Example A128, 2-[4-[[[5-fluoro-6-[methyl-[[3-(trifluoromethoxy)phenyl]methyl]amino]pyrimidin-4-yl]amino]methyl]phenyl]acetamide]"
14,> 6.30,"CN(Cc1cccc(C(F)(F)F)c1)c1ncnc(NCc2ccc(CC(N)=O)cc2)c1F [Example A129, 2-[4-[[[5-fluoro-6-[methyl-[[3-(trifluoromethyl)phenyl]methyl]amino]pyrimidin-4-yl]amino]methyl]phenyl]acetamide]"
